According to patent US20100273769A1, “COMPOSITION AND METHOD FOR THE TREATMENT OF PARKINSON'S DISEASE” (priority 2009, published 2010):

Legend:
G2019S mutant LRRK2 = target: T1, G2019S mutant LRRK2 (Homo sapiens, UniProt Q5S007, G2019S); assay: Adapta assay, inhibition of G2019S mutant LRRK2 kinase fragment; assay type: biochemical; details: 100 μM ATP, FIG. 3B
T1 construct: of the mutant aa1326-2527 kinase fragment are used in the assays; GST; made in house
T1 sequence (Q5S007 1326-2527 G2019S): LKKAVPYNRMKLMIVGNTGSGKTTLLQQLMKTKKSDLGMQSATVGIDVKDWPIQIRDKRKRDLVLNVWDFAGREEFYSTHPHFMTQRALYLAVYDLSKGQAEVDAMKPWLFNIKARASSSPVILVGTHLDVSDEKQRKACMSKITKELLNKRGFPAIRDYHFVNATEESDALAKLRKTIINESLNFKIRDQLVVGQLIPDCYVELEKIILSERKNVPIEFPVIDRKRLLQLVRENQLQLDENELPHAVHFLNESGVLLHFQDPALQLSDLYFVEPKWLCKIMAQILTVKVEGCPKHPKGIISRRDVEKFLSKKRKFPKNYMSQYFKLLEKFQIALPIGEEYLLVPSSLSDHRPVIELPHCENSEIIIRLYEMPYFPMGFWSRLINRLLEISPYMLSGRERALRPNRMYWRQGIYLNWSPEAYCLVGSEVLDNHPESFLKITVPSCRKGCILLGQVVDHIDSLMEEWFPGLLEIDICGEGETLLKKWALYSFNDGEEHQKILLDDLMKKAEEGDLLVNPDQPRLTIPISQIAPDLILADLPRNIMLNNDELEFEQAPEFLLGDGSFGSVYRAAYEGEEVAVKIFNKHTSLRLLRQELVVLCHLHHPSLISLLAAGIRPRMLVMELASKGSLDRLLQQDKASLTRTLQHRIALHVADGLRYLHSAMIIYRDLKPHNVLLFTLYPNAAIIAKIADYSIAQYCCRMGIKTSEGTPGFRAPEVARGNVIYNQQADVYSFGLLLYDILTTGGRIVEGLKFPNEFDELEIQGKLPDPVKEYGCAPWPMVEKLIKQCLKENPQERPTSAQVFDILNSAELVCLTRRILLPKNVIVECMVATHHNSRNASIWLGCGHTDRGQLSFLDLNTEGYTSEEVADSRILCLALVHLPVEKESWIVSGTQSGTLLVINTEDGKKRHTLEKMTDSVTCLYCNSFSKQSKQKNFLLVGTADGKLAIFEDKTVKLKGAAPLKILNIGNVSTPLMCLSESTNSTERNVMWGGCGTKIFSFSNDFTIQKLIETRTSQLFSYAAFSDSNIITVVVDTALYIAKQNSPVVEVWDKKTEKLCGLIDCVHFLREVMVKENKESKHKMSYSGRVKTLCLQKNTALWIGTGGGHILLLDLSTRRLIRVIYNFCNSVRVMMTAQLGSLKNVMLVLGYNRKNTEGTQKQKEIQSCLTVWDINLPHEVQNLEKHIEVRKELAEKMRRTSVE
Protocol: Duplicate assay mixtures are set up each in a 10 μL volume containing 17 ng (8 nM) of human LRRK2 protein fragment encompassing amino acids 1326 to 2527, obtained as a recombinant GST fusion protein [according to Jaleel et al., Biochem. J. 405, 307-317 (2007)], 200 μM LRRKtide ([…]peptide), 25 mM Tris, pH 8.2, 5 mM MgCl2, 0.5 mM EGTA, 100 μM ATP, 0.005% Brij-35, 1% DMSO, and compound 3 in a series of concentrations (OnM, 0.1 nM, 0.3 nM, 1 nM, 3 nM, 10 nM, 30 nM, 100 nM, 300 nM, 1000 nM). After incubation for 1 hr at ambient temperature, 5 μL of the Adapta® Assay Detection Mix (Invitrogen) is added, containing 30 mM EDTA to stop the kinase reaction, 30 nM of the Eu-labelled anti-ADP antibody, and the AlexaFluor°-ADP conjugate. […]
The assays conducted in a 384 well microplate are then read out in a fluorescence microplate reader to establish the ratio of emissions at 665 nm (ADP-tracer) and at 615 nm (Eu-antibody) as a measure of ADP concentration by virtue of Fluorescence Resonance Energy Transfer (FRET). The conversion in % of ATP into ADP by the kinase reaction in each well is determined from the ADP/ATP standard curve, and means are formed from each duplicate assay well. […]
Inhibition is determined in the same way as in example 2, except that due to the higher specific activity […] of the mutant aa1326-2527 kinase fragment are used in the assays

ERK2 = ERK2 (Homo sapiens, UniProt P28482); assay: Kinase specificity, ERK2; assay type: biochemical; details: 100 μM ATP
Sequence of ERK2 (P28482 whole entry, species assumed): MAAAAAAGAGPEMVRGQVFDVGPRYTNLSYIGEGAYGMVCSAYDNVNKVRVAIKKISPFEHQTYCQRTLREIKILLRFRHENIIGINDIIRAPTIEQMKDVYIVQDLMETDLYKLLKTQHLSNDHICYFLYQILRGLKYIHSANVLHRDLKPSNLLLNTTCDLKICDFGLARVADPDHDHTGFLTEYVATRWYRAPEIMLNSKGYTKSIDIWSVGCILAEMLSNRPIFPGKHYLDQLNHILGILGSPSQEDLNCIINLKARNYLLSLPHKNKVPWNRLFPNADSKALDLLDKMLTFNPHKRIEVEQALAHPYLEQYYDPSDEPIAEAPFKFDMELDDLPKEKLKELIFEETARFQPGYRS

`CNC(=O)[C@@]1(N)CC2OC1(C)n1c3ccccc3c3c4c(c5c6ccccc6n2c5c31)C(=O)NC4` (some centres unmarked) [Compound 3] was tested, and the “IC50 relative to nominal kinase concentration, G2019S LRRK2” value (G2019S mutant LRRK2) was “substantially below the nominal concentration of the kinase itself” and the IC50 (ERK2) was 26 nM.
